From article PMC5218823, “Acute effects of ethanol on GABAA and glycine currents in the lateral habenula neurons of young rats” (Open journal of neuroscience, 2013)

What was measured:
[1] = system: T1, glycine receptors (GlyRs) of lateral habenula neurons; conditions: VH -60 mV; pH 7.4; 22-24 °C; agonist
T1 construct: gene Glra1

[2] = system: T1, glycine receptors (GlyRs) of lateral habenula neurons; test: whole-cell patch clamp, inhibition of glycine current; type: cell-based, Rattus norvegicus; conditions: 500 μM glycine, co-applied; VH -60 mV; pH 7.4; 22-24 °C; antagonist
[3] = system: T2, GABAA receptors (GABAARs) of lateral habenula neurons; conditions: 10 μM GABA, co-applied; VH -60 mV; pH 7.4; 22-24 °C; voltage-independent; extrapolated beyond tested 10.8-43.2 mM
T2 construct: gene Gabra1

[4] = system: T1, glycine receptors (GlyRs) of lateral habenula neurons; conditions: 30 μM glycine; VH -60 mV; pH 7.4; 22-24 °C; positive modulator

NCC(=O)O [glycine]
EC50 [1]: 83.3 µM

O=C1C[C@@H]2OCC=C3CN4CC[C@]56c7ccccc7N1[C@H]5[C@H]2[C@H]3C[C@H]46 [strychnine]
IC50 [2]: 0.22 µM

CCO [ethanol]
IC50 [3]: 94100 ± 29100 µM | % of control at 43.2 mM [4]: 148 ± 14%
